Experimental findings from ChEMBL document CHEMBL3044838, “Phytotoxic activity of quinones and resorcinolic lipid derivatives” (J Agric Food Chem, 2010) are described below.

Active and inactive are the calls of the source. The rule behind the calls is not given here.

One assay relates to Lactuca sativa. Kind of assay: Phytotoxic activity against Lactuca sativa cv. Iceberg A (lettuce) seedlings assessed as growth inhibition at 0.01 mM. The format is functional, organism-based.
As for `CCCCCC1=C(O)C(=O)C=C(OC)C1=O`, the “growth inhibition (GI)” value was “inactive”.
Same read-out and setting: with `C=CC/C=C\C/C=C\CCCCCCCC1=C(O)C(=O)C=C(OC)C1=O` the entry was “inactive”; with `CCCCCCCCCCCCCCC1=C(O)C(=O)C=C(OC)C1=O`, “inactive”.
On the same count and under the same terms, the result for `CCCCCCCCCCC1=C(OC)C(=O)C=C(OC)C1=O` reads “inactive”; that for `CCCCCC1=C(OC)C(=O)C=C(OC)C1=O`, “inactive”.

The test system of another assay is Agrostis stolonifera. Kind of assay: Phytotoxic activity against Agrostis stolonifera var. Penncross seedlings assessed as growth inhibition at 0.3 mM. The assay is classed as functional, organism-based.
For `C=CC/C=C\C/C=C\CCCCCCCC1=C(O)C(=O)C=C(OC)C1=O`, the “growth inhibition (GI)” value was “inactive”.
For `CCCCCCCCCCCCCCC1=C(O)C(=O)C=C(OC)C1=O`, the “growth inhibition (GI)” value is “inactive”.
Consider `CCCCCCCCCCC1=C(OC)C(=O)C=C(OC)C1=O`, for which the “growth inhibition (GI)” value is “inactive”.

A further assay has as its system Agrostis stolonifera. Kind of assay: Phytotoxic activity against Agrostis stolonifera var. Penncross seedlings assessed as growth inhibition at 0.01 mM. The format is functional, organism-based.
`CCCCCC1=C(O)C(=O)C=C(OC)C1=O`: the “growth inhibition (GI)” value was “inactive”.
Turning to `C=CC/C=C\C/C=C\CCCCCCCC1=C(O)C(=O)C=C(OC)C1=O`, the “growth inhibition (GI)” value is “inactive”.
For the molecule `CCCCCCCCCCCCCCC1=C(O)C(=O)C=C(OC)C1=O`, the “growth inhibition (GI)” value was “inactive”.
Same read-out and setting: with `CCCCCCCCCCC1=C(OC)C(=O)C=C(OC)C1=O` the entry was “inactive”; with `CCCCCC1=C(OC)C(=O)C=C(OC)C1=O`, “inactive”.

The next assay deals with Agrostis stolonifera. Kind of assay: Phytotoxic activity against Agrostis stolonifera var. Penncross seedlings assessed as growth inhibition at 0.03 mM. The assay is classed as functional, organism-based.
With `CCCCCC1=C(O)C(=O)C=C(OC)C1=O`, the “growth inhibition (GI)” value is “inactive”.
Still for that read-out and setting: the result for `C=CC/C=C\C/C=C\CCCCCCCC1=C(O)C(=O)C=C(OC)C1=O` reads “inactive”; that for `CCCCCCCCCCCCCCC1=C(O)C(=O)C=C(OC)C1=O`, “inactive”.
Still for that read-out and setting: the result for `CCCCCCCCCCC1=C(OC)C(=O)C=C(OC)C1=O` reads “inactive”; that for `CCCCCC1=C(OC)C(=O)C=C(OC)C1=O`, “inactive”.

For the next assay, the system named is Lactuca sativa. Kind of assay: Phytotoxic activity against Lactuca sativa cv. Iceberg A (lettuce) seedlings assessed as growth inhibition at 0.03 mM. The format is functional, organism-based.
Consider `CCCCCC1=C(O)C(=O)C=C(OC)C1=O`, for which the “growth inhibition (GI)” value is “inactive”.
Same read-out and setting: with `C=CC/C=C\C/C=C\CCCCCCCC1=C(O)C(=O)C=C(OC)C1=O` the entry was “inactive”; with `CCCCCCCCCCCCCCC1=C(O)C(=O)C=C(OC)C1=O`, “inactive”.
On the same count and under the same terms, the result for `CCCCCCCCCCC1=C(OC)C(=O)C=C(OC)C1=O` reads “inactive”; that for `CCCCCC1=C(OC)C(=O)C=C(OC)C1=O`, “inactive”.

The test system of another assay is Lactuca sativa. Kind of assay: Phytotoxic activity against Lactuca sativa cv. Iceberg A (lettuce) seedlings assessed as growth inhibition at 1 mM. The format is functional, organism-based.
On to `CCCCCC1=C(O)C(=O)C=C(OC)C1=O`, for which the “growth inhibition (GI)” value is “Active”.

The subject of the next assay is Lactuca sativa. Kind of assay: Phytotoxic activity against Lactuca sativa cv. Iceberg A (lettuce) seedlings assessed as growth inhibition at 0.1 mM. The format is functional, organism-based.
With `CCCCCC1=C(O)C(=O)C=C(OC)C1=O`, the “growth inhibition (GI)” value is “inactive”.
Same read-out and setting: with `CCCCCCCCCCCCCCC1=C(O)C(=O)C=C(OC)C1=O` the entry was “inactive”; with `CCCCCCCCCCC1=C(OC)C(=O)C=C(OC)C1=O`, “inactive”; with `CCCCCC1=C(OC)C(=O)C=C(OC)C1=O`, “inactive”.

For another assay, the system named is Lactuca sativa. Kind of assay: Phytotoxic activity against Lactuca sativa cv. Iceberg A (lettuce) seedlings assessed as growth inhibition at 0.3 mM. The assay is classed as functional, organism-based.
Regarding `CCCCCCCCCCC1=C(OC)C(=O)C=C(OC)C1=O`, the “growth inhibition (GI)” value is “inactive”.

A further assay has as its system Agrostis stolonifera. Kind of assay: Phytotoxic activity against Agrostis stolonifera var. Penncross seedlings assessed as growth inhibition at 0.1 mM. The format is functional, organism-based.
Turning to `C=CC/C=C\C/C=C\CCCCCCCC1=C(O)C(=O)C=C(OC)C1=O`, the “growth inhibition (GI)” value is “inactive”.
For `CCCCCCCCCCCCCCC1=C(O)C(=O)C=C(OC)C1=O`, the “growth inhibition (GI)” value is “inactive”.
Turning to `CCCCCCCCCCC1=C(OC)C(=O)C=C(OC)C1=O`, the “growth inhibition (GI)” value is “inactive”.

Another assay deals with Agrostis stolonifera. Kind of assay: Phytotoxic activity against Agrostis stolonifera var. Penncross seedlings assessed as growth inhibition at 1 mM. The format is functional, organism-based.
For the molecule `C=CC/C=C\C/C=C\CCCCCCCC1=C(O)C(=O)C=C(OC)C1=O`, the “growth inhibition (GI)” value is “inactive”.
Still for that read-out and setting: with `CCCCCCCCCCCCCCC1=C(O)C(=O)C=C(OC)C1=O` the entry was “inactive”.
